“And” between values parts separate entries of the source, which are not always exact repeats. Identical values can stand only once. Inconclusive results and toxic doses are left out.
Tested on: L1210 leukemia ip in BDF1 mice, survival T/C
Assay: NCI In Vivo Anticancer Drug Screen. Data for tumor model L1210 Leukemia (intraperitoneal) in B6D2F1 (BDF1) mice
Conditions: endpoint: mean survival time, higher = longer survival
Procedure, shortened: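 Transplanted-tumor mice were given test agent; controls received vehicle only. Survival readings from the two groups were divided (treated over control).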

[1] = dose: 25.0 mg/kg/injection, schedule: Q01DX009 (ip), vehicle: Klucel (hydroxypropylcellulose) (HPC)
[2] = dose: 50.0 mg/kg/injection, schedule: Q01DX009 (ip), vehicle: Klucel (hydroxypropylcellulose) (HPC)
[3] = dose: 100.0 mg/kg/injection, schedule: Q01DX009 (ip), vehicle: Klucel (hydroxypropylcellulose) (HPC)
[4] = dose: 100.0 mg/kg/injection, schedule: Q01DX009 (ip), vehicle: saline
[5] = dose: 100.0 mg/kg/injection, schedule: Q04DX003 (ip), vehicle: Klucel (hydroxypropylcellulose) (HPC)
[6] = dose: 200.0 mg/kg/injection, schedule: Q01DX009 (ip), vehicle: Klucel (hydroxypropylcellulose) (HPC)
[7] = dose: 200.0 mg/kg/injection, schedule: Q04DX003 (ip), vehicle: Klucel (hydroxypropylcellulose) (HPC)
[8] = dose: 400.0 mg/kg/injection, schedule: Q01DX009 (ip), vehicle: Klucel (hydroxypropylcellulose) (HPC)
[9] = dose: 400.0 mg/kg/injection, schedule: Q04DX003 (ip), vehicle: Klucel (hydroxypropylcellulose) (HPC)
[10] = dose: 400.0 mg/kg/injection, schedule: Q04DX003 (ip), vehicle: saline
[11] = dose: 200.0 mg/kg/injection, schedule: Q01DX009 (ip), vehicle: saline with Tween-80
[12] = dose: 400.0 mg/kg/injection, schedule: Q01DX009 (ip), vehicle: saline with Tween-80
[13] = dose: 100.0 mg/kg/injection, schedule: Q04DX003 (ip), vehicle: saline
[14] = dose: 200.0 mg/kg/injection, schedule: Q04DX003 (ip), vehicle: saline
[15] = dose: 100.0 mg/kg/injection, schedule: Q01DX001 (ip), vehicle: saline
[16] = dose: 200.0 mg/kg/injection, schedule: Q01DX001 (ip), vehicle: saline
[17] = dose: 400.0 mg/kg/injection, schedule: Q01DX001 (ip), vehicle: saline
[18] = dose: 100.0 mg/kg/injection, schedule: Q04DX003 (ip), vehicle: saline with Tween-80
[19] = dose: 200.0 mg/kg/injection, schedule: Q04DX003 (ip), vehicle: saline with Tween-80
[20] = dose: 400.0 mg/kg/injection, schedule: Q04DX003 (ip), vehicle: saline with Tween-80

## S=c1[nH][nH]c(=S)s1
dose: 12.5 mg/kg/injection, schedule: Q01DX009 (ip), vehicle: Klucel (hydroxypropylcellulose) (HPC)
  T/C: 92 % of control
[1]
  T/C: 95 % of control
[2]
  T/C: 90 % of control
dose: 50.0 mg/kg/injection, schedule: Q01DX009 (ip), vehicle: saline
  T/C: 97 % of control
[3]
  T/C: 101 % of control
[4]
  T/C: 97 % of control

## Cc1cccc(NC(=O)c2ccc(Cl)c(Cl)c2)c1C
[3]
  T/C: 94 % of control
[5]
  T/C: 93 % of control
[6]
  T/C: 88 % of control
[7]
  T/C: 91 % of control
[8]
  T/C: 88 % of control
[9]
  T/C: 95 % of control

## CN(O)C(N)=O
dose: 25.0 mg/kg/injection, schedule: Q03HX024 (ip), vehicle: saline
  T/C: 160 % of control
dose: 35.0 mg/kg/injection, schedule: Q01DX009 (ip), vehicle: saline
  T/C: 124 % of control
dose: 50.0 mg/kg/injection, schedule: Q03HX024 (ip), vehicle: saline
  T/C: 124 % of control
dose: 75.0 mg/kg/injection, schedule: Q04DX003 (ip), vehicle: saline
  T/C: 108 % of control
[4]
  T/C: 151 % of control
dose: 115.0 mg/kg/injection, schedule: Q04DX003 (ip), vehicle: saline
  T/C: 108 % of control
dose: 175.0 mg/kg/injection, schedule: Q04DX003 (ip), vehicle: saline
  T/C: 119 % of control
dose: 177.0 mg/kg/injection, schedule: Q01DX009 (ip), vehicle: saline
  T/C: 152 % of control and 170 % of control
dose: 200.0 mg/kg/injection, schedule: Q01DX009 (ip), vehicle: saline
  T/C: 158 % of control
dose: 265.0 mg/kg/injection, schedule: Q04DX003 (ip), vehicle: saline
  T/C: 115 % of control
dose: 266.0 mg/kg/injection, schedule: Q01DX009 (ip), vehicle: saline
  T/C: 194 % of control
dose: 267.0 mg/kg/injection, schedule: Q01DX009 (ip), vehicle: saline
  T/C: 151 % of control
[10]
  T/C: 166 % of control
dose: 500.0 mg/kg/injection, schedule: Q01DX009 (ip), vehicle: saline
  T/C: 100 % of control
dose: 800.0 mg/kg/injection, schedule: Q01DX009 (ip), vehicle: saline
  T/C: 103 % of control
dose: 900.0 mg/kg/injection, schedule: Q04DX003 (ip), vehicle: saline
  T/C: 115 % of control

## Cc1ccc2ccccc2c1NS(=O)(=O)c1ccccc1
dose: 100.0 mg/kg/injection, schedule: Q01DX001 (ip), vehicle: saline sonified
  T/C: 95 % of control
dose: 100.0 mg/kg/injection, schedule: Q01DX009 (ip), vehicle: saline with Tween-80
  T/C: 90 % of control
dose: 200.0 mg/kg/injection, schedule: Q01DX001 (ip), vehicle: saline sonified
  T/C: 95 % of control
[11]
  T/C: 90 % of control
dose: 400.0 mg/kg/injection, schedule: Q01DX001 (ip), vehicle: saline sonified
  T/C: 97 % of control
[12]
  T/C: 88 % of control

## O=C(O)c1nccc2ccccc12
[13]
  T/C: 96 % of control
[14]
  T/C: 112 % of control
[10]
  T/C: 90 % of control

## Nc1ccc(SCCCCCCSc2ccc(N)cc2)cc1
dose: 100.0 mg/kg/injection, schedule: Q04DX003 (ip), vehicle: other
  T/C: 94 % of control

## CCn1c(C)nc2cc(Cl)c(Br)cc21
[13]
  T/C: 107 % of control
[14]
  T/C: 110 % of control

## Cc1c2cnccc2c(C)c2c1[nH]c1ccccc12
dose: 25.0 mg/kg/injection, schedule: Q01DX Z (ip), vehicle: saline
  T/C: 104 % of control
dose: 50.0 mg/kg/injection, schedule: Q01DX Z (ip), vehicle: saline
  T/C: 102 % of control
dose: 75.0 mg/kg/injection, schedule: Q01DX Z (ip), vehicle: saline
  T/C: 100 % of control
[15]
  T/C: 97 % of control
dose: 100.0 mg/kg/injection, schedule: Q01DX Z (ip), vehicle: saline
  T/C: 102 % of control and 92 % of control
dose: 150.0 mg/kg/injection, schedule: Q01DX Z (ip), vehicle: saline
  T/C: 90 % of control
[16]
  T/C: 100 % of control
dose: 225.0 mg/kg/injection, schedule: Q01DX Z (ip), vehicle: saline
  T/C: 93 % of control
dose: 335.0 mg/kg/injection, schedule: Q01DX Z (ip), vehicle: saline
  T/C: 97 % of control and 98 % of control
[17]
  T/C: 100 % of control
dose: 500.0 mg/kg/injection, schedule: Q01DX Z (ip), vehicle: saline
  T/C: 113 % of control

## ClC12OOC(c3ccccc3)(O1)C(c1ccccc1)c1ccccc12 (stereo not given)
[5]
  T/C: 93 % of control
[7]
  T/C: 98 % of control
[9]
  T/C: 98 % of control

## CCCCCc1nc2c(c(=O)n(C)c(=O)n2C)n1C
dose: 50.0 mg/kg/injection, schedule: Q01DX001 (ip), vehicle: saline
  T/C: 112 % of control
[15]
  T/C: 100 % of control
[16]
  T/C: 102 % of control
[17]
  T/C: 106 % of control

## ClCCOCCOCCOCCCl
dose: 75.0 mg/kg/injection, schedule: Q01DX009 (ip), vehicle: saline with Tween-80
  T/C: 97 % of control
[18]
  T/C: 97 % of control
dose: 150.0 mg/kg/injection, schedule: Q01DX009 (ip), vehicle: saline with Tween-80
  T/C: 93 % of control
[19]
  T/C: 106 % of control
dose: 300.0 mg/kg/injection, schedule: Q01DX009 (ip), vehicle: saline with Tween-80
  T/C: 93 % of control
[20]
  T/C: 102 % of control

## COC(=O)C1(C)CCCC2(C)C3CCC4(C)CC3(CCO4)CCC12 (stereo not given)
dose: 200.0 mg/kg/injection, schedule: Q04DX002 (ip), vehicle: Klucel (hydroxypropylcellulose) (HPC)
  T/C: 87 % of control
dose: 400.0 mg/kg/injection, schedule: Q04DX002 (ip), vehicle: Klucel (hydroxypropylcellulose) (HPC)
  T/C: 95 % of control

## CC(=O)NC(CCSCc1c2ccccc2c(C)c2c1ccc1ccccc12)C(=O)O (stereo not given)
[11]
  T/C: 92 % of control
[12]
  T/C: 90 % of control

## CCCCCCCCCCCOP(=O)(OCC)OCC
dose: 100.0 mg/kg/injection, schedule: Q04DX002 (ip), vehicle: saline with Tween-80
  T/C: 95 % of control
dose: 200.0 mg/kg/injection, schedule: Q04DX002 (ip), vehicle: saline with Tween-80
  T/C: 95 % of control
dose: 400.0 mg/kg/injection, schedule: Q04DX002 (ip), vehicle: saline with Tween-80
  T/C: 106 % of control

## O=C(C1C2C=CC(C2)C1C(=O)N1CCCCC1)N1CCCCC1 (stereo not given)
dose: 25.0 mg/kg/injection, schedule: Q04DX003 (ip), vehicle: saline
  T/C: 103 % of control
dose: 50.0 mg/kg/injection, schedule: Q04DX003 (ip), vehicle: saline
  T/C: 95 % of control
[18]
  T/C: 111 % of control
[13]
  T/C: 98 % of control
[19]
  T/C: 86 % of control

## COC(=O)c1ccccc1NC(=O)Nc1ccc(F)cc1
[3]
  T/C: 90 % of control
[6]
  T/C: 90 % of control
[8]
  T/C: 90 % of control

## Cc1ccc(N=C(C(=Nc2ccc(C)cc2)c2ccccc2)c2ccccc2)cc1
[18]
  T/C: 91 % of control
[19]
  T/C: 90 % of control
[20]
  T/C: 88 % of control

## COC(=O)C(N=Nc1ccc(C)cc1)C(C)=O (stereo not given)
[1]
  T/C: 97 % of control
[2]
  T/C: 94 % of control
[3]
  T/C: 89 % of control

## O=[N+]([O-])c1ccc(-c2cnc(Br)c3ccccc23)cc1
dose: 25.0 mg/kg/injection, schedule: Q04DX003 (ip), vehicle: DMSO
  T/C: 96 % of control
dose: 50.0 mg/kg/injection, schedule: Q04DX003 (ip), vehicle: DMSO
  T/C: 93 % of control
dose: 100.0 mg/kg/injection, schedule: Q04DX003 (ip), vehicle: DMSO
  T/C: 93 % of control
dose: 200.0 mg/kg/injection, schedule: Q04DX003 (ip), vehicle: DMSO
  T/C: 93 % of control
dose: 400.0 mg/kg/injection, schedule: Q04DX003 (ip), vehicle: DMSO
  T/C: 93 % of control
